Molecular target: T1, Androgen Receptor (AR) in the LNCaP prostate carcinoma cell line (Homo sapiens, UniProt P10275, T878A)
T1 construct: cell based immuno-fluorescence assay using the LNCaP prostate epithelial cell line; host or cells: LNCaP clone FGC
T1 sequence (P10275 1-920 T878A): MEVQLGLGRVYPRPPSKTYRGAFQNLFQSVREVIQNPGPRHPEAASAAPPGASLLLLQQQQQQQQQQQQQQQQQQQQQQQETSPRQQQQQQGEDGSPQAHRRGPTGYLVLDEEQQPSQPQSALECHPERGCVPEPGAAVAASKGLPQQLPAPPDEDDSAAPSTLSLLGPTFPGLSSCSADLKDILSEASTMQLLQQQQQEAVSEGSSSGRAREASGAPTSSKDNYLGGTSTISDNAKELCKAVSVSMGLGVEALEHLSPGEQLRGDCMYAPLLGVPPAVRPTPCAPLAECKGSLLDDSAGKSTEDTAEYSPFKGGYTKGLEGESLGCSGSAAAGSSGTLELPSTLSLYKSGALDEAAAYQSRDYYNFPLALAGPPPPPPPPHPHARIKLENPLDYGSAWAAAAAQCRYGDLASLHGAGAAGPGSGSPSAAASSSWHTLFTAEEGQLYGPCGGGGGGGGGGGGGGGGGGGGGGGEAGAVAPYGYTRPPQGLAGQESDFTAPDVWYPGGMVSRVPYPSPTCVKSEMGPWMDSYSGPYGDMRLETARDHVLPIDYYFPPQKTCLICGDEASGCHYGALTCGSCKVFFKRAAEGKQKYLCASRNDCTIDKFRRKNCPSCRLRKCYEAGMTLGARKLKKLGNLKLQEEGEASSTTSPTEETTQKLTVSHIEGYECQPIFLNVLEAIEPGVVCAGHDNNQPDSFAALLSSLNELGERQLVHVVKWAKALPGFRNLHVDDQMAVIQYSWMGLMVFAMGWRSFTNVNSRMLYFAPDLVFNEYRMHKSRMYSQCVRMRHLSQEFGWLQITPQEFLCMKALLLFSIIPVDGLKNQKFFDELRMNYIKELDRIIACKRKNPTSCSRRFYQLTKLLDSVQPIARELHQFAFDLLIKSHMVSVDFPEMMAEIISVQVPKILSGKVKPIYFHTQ
Assay: LNCaP Androgen Receptor Down-Regulation Cell Assay (immunofluorescence end point)
Type: cell-based
Conditions: LNCaP cells, compound incubation 20-22 hours, concentration giving 50% reduction of the AR signal
Experimental: The ability of compounds to reduce Androgen Receptor (AR) numbers was assessed in a cell based immuno-fluorescence assay using the LNCaP prostate epithelial cell line.
This immunofluorescence end point assay measures the ability of a test compound to down-regulate and reduce measured levels of the AR in the LNCaP prostate carcinoma cell line (LNCaP clone FGC (CRL-1740) obtained from the American Type Culture Collection (ATCC)).
LNCaP cells were cultured in Growth Medium (phenol red free Roswell Park Memorial Institute (RPMI) 1640 (Invitrogen Code no. 11835-063) containing 2 mM L-Glutamine (Invitrogen Code no. 25030-024) and 1% (v/v) Penicillin/Streptomycin (10000 units/ml Penicillin and 10000 μg/ml of Streptomycin utilising penicillin G (sodium salt) and streptomycin sulphate: prepared in normal saline, Invitrogen Code no. 15140122) and 10% (v/v) foetal bovine serum (FBS)) in a 5% CO2 air incubator at 37° C. Cells for assay were harvested from T175 stock flasks by washing once in PBS (phosphate buffered saline, pH 7.4) (Invitrogen Code no. 14190-094) and harvested using 5 mls of 1× Trypsin/ethylaminediaminetetraacetic acid (EDTA) (10× Trypsin-EDTA, 5.0 g/L Trypsin, 2.0 g/L of EDTA.4Na and 8.5 g/L of NaCl, without Phenol Red, Invitrogen Code no. 15400-054) diluted in PBS solution. A 5 ml volume of Growth Medium was added to each flask (as above except that 5% (v/v) charcoal stripped FBS (HyClone Code no. SH30068.03) was included instead of 10% (v/v) FBS). Cells were syringed at least twice using a sterile 18 G×1.5″ (1.2×40 mm) broad gauge needle and cell density was measured using a haemocytometer. Cells were further diluted in Growth Medium plus 5% (v/v) charcoal stripped FBS and seeded at a density of 6.5×10^3 cells per well (in 90 ul) into transparent, black, tissue culture treated 96 well plates (Packard, No. 6005182).
Test data reported herein was generated using two different compounds preparation and dosing methods. In method (1) a 10 mM compound stock solution in 100% (v/v) DMSO was serially diluted in 4-fold steps in 100% (v/v) DMSO using a Thermo Scientific Matrix SerialMate. The diluted compounds were then further diluted 1 in 30 in assay media using a Thermo Scientific Matrix PlateMate and a 10 μl aliquot of this dilution was dosed to cells manually using a multi-channel pipette. In method (2) starting with a 10 mM compound stock solution, the Labcyte Echo 550 was used to generate a compound concentration response set diluted in 30 μl of assay media. The Echo 550 is a liquid handler that uses acoustic technology to perform direct microplate-to-microplate transfers of DMSO compound solutions. The system can be programmed to transfer volumes as low as 2.5 nL in multiple increments between microplates and in so doing generates a serial dilution of compound which is then back-filled to normalise the DMSO concentration across the dilution range. A 10 μl volume of diluted compound is then dosed to cells using a Thermo Scientific Matrix PlateMate.
Plates were incubated overnight at 37° C., 5% CO2. Wells were then dosed with compound prepared by one of the 2 methods above and further incubated for 20-22 hours at 37° C., 5% CO2. Plates were fixed by the addition of 20 μl of 10% (v/v) formaldehyde solution (in PBS) to each well (final formaldehyde conc.=1.67% (v/v)) and left at room temperature for 10 mins. This fixative solution was removed and cells were washed with 250 μl of PBS/0.05% (v/v) Tween 20 (PBST) using an automated plate washer. This process was then repeated twice more.
Immunostaining was performed at room temperature. Cells were permeabilised by the addition of 35 μl of PBS containing 0.5% Tween 20 and incubated for 1 hour at room temperature. Permeabilisation solution was removed and cells were washed with 250 μl of PBST using an automated plate washer. This process was then repeated twice more. […]

| Compound | IC50 |
| --- | --- |
| COCCN(C)C(=O)COc1ccc(C2CCN(C3=Nn4c(nnc4C(F)(F)F)CC3)CC2)cc1 [Example 19, N-(2-methoxyethyl)-N-methyl-2-(4-{1-[3-(trifluoromethyl)-7,8-dihydro[1,2,4]triazolo[4,3-b]pyridazin-6-yl]piperidin-4-yl}phenoxy)acetamide] | 2.9 µM |
| CN(C)C(=O)COc1ccc(C2CCN(C3=Nn4c(nnc4C(F)(F)F)CC3)CC2)cc1 [Example 20, N,N-dimethyl-2-(4-{1-[3-(trifluoromethyl)-7,8-dihydro[1,2,4]triazolo[4,3-b]pyridazin-6-yl]piperidin-4-yl}phenoxy)acetamide] | 4.1 µM |
| CN(CCO)C(=O)COc1ccc(C2CCN(C3=Nn4c(nnc4C(F)(F)F)CC3)CC2)cc1 [Example 21, N-(2-hydroxyethyl)-N-methyl-2-(4-{1-[3-(trifluoromethyl)-7,8-dihydro[1,2,4]triazolo[4,3-b]pyridazin-6-yl]piperidin-4-yl}phenoxy)acetamide] | 26 µM |
| CCCCN(C)C(=O)COc1ccc(C2CCN(C3=Nn4c(nnc4C(F)(F)F)CC3)CC2)cc1 [Example 22, N-butyl-N-methyl-2-(4-{1-[3-(trifluoromethyl)-7,8-dihydro[1,2,4]triazolo[4,3-b]pyridazin-6-yl]piperidin-4-yl}phenoxy)acetamide] | 0.46 µM |
| COCCN(C)C(=O)CCCOc1ccc(C2CCN(C3=Nn4c(nnc4C(F)(F)F)CC3)CC2)cc1 [Example 23, N-(2-methoxyethyl)-N-methyl-4-(4-{1-[3-(trifluoromethyl)-7,8-dihydro[1,2,4]triazolo[4,3-b]pyridazin-6-yl]piperidin-4-yl}phenoxy)butanamide] | 1.3 µM |
| CN(CCO)C(=O)CCCOc1ccc(C2CCN(C3=Nn4c(nnc4C(F)(F)F)CC3)CC2)cc1 [Example 24] | 2.5 µM |
| CCCCC(=O)N1CCN(CCOc2ccc(C3CCN(C4=Nn5c(nnc5C(F)(F)F)CC4)CC3)cc2)CC1 [Example 25, 6-(4-{4-[2-(4-pentanoylpiperazin-1-yl)ethoxy]phenyl}piperidin-1-yl)-3-(trifluoromethyl)-7,8-dihydro[1,2,4]triazolo[4,3-b]pyridazine] | 0.93 µM |
| CS(=O)(=O)N1CCN(CCOc2ccc(C3CCN(C4=Nn5c(nnc5C(F)(F)F)CC4)CC3)cc2)CC1 [Example 26, 6-[4-(4-{2-[4-(methylsulfonyl)piperazin-1-yl]ethoxy}phenyl)piperidin-1-yl]-3-(trifluoromethyl)-7,8-dihydro[1,2,4]triazolo[4,3-b]pyridazine] | 1.5 µM |
| CCCCC(=O)N1CCN(CCCOc2ccc(C3CCN(C4=Nn5c(nnc5C(F)(F)F)CC4)CC3)cc2)CC1 [Example 27, 6-(4-{4-[3-(4-pentanoylpiperazin-1-yl)propoxy]phenyl}piperidin-1-yl)-3-(trifluoromethyl)-7,8-dihydro[1,2,4]triazolo[4,3-b]pyridazine] | 0.67 µM |
| CS(=O)(=O)N1CCN(CCCOc2ccc(C3CCN(C4=Nn5c(nnc5C(F)(F)F)CC4)CC3)cc2)CC1 [Example 28, 6-[4-(4-{3-[4-(methylsulfonyl)piperazin-1-yl]propoxy}phenyl)piperidin-1-yl]-3-(trifluoromethyl)-7,8-dihydro[1,2,4]triazolo[4,3-b]pyridazine] | 1 µM |
| CC(=O)N1CCN(CCCOc2ccc(N3CCN(C4=Nn5c(nnc5C(F)(F)F)CC4)CC3)cc2)CC1 [Example 29, 6-(4-{4-[3-(4-acetylpiperazin-1-yl)propoxy]phenyl}piperazin-1-yl)-3-(trifluoromethyl)-7,8-dihydro[1,2,4]triazolo[4,3-b]pyridazine] | 10 µM |
| CCCCC(=O)N1CCN(CCCOc2ccc(N3CCN(C4=Nn5c(nnc5C(F)(F)F)CC4)CC3)cc2)CC1 [Example 30, 6-(4-{4-[3-(4-pentanoylpiperazin-1-yl)propoxy]phenyl}piperazin-1-yl)-3-(trifluoromethyl)-7,8-dihydro[1,2,4]triazolo[4,3-b]pyridazine] | 6.7 µM |
| CS(=O)(=O)N1CCN(CCCOc2ccc(N3CCN(C4=Nn5c(nnc5C(F)(F)F)CC4)CC3)cc2)CC1 [Example 31] | 18 µM |
